Data taken from patent US4929736A, “Latent isocynate derivatives useful for deactivating enzymes” (Board of Trustees of the Wichita State University, priority 1986, dated 1990).
“Also recorded” adds a separate entry of the source. Where two headings read alike, the source gives them in different places. Values belong to the molecule of their own block, whether it stands above or below them.

How the values were obtained:
PPE = details: cited from earlier work; for Irreversible inhibition of PPE (in words): 183rd ACS National Meeting, 1982
[1] = target: Porcine pancreatic elastase (PPE) (Sus scrofa, UniProt P00772); assay: Spectrophotometric assay of PPE inactivation (in vitro); format: biochemical; details: for kinact/KI: Table I azolides, read-out: Porcine pancreatic elastase k3 /Ki
Sequence of Porcine pancreatic elastase (PPE) (P00772 27-266): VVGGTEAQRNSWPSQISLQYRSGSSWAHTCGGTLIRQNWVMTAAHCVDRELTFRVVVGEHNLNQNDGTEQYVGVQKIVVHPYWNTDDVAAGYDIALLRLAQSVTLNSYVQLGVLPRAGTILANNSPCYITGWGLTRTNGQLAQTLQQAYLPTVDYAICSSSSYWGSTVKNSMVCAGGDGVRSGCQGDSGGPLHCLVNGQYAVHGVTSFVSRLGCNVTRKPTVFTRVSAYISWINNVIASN
Experimental: The enzyme assays used to evaluate the potency of the inhibitors in vitro were performed as follows: PPE was assayed spectrophotometrically at 347.5 nm with (tert-butoxycarbonyl)-alanyl-p-nitrophenol in 0.05 M phosphate buffer, pH 6.5, 25° C., or by using succinyl-L-trialanyl-p-nitroanilide in 0.1 M Tris buffer, pH 8.0, at 410 nm. HLE was assayed spectrophotometrically at 410 nm with succinyl-L-trialanyl-p-nitroanilide or methoxy succinyl ala-ala-pro-val-p-nitroanilide (As describe by K. Wakajima et al in the J. Biol. Chem, 254, 4027-4032 (1979) and T. Teshima et al, in J. Biol. Chem 257, 5085-5091 (1982). The potency of an inhibitor is determined by obtaining a kinetic determination of the bimolecular rate constant K3 /Ki (or Robsd /[I]). The HLE used in these studies may be obtained from Elastin Products, St. Louis, Mo.) in 0.1 M Tris buffer, pH 8.0.
(§1) The appropriate amount of inhibitor in acetonitrile was mixed with PPE in phosphate buffer solution and placed in a constant temperature bath. Aliquots were withdrawn at different time intervals and transferred to a cuvette containing 100 uL of substrate, 140 uL of acetonitrile, and 2 mL of phosphate buffer, pH 6.5. After incubating for 30 seconds, the absorbance change was monitored for two minutes at 347.5 nm. The inhibitor-to-enzyme ratios varied between 50 and 200, and the incubation intervals were shortened or lengthened depending upon the potency of the inhibitor. Controlled reactions for 100% PPE activity were run in the presence of acetonitrile. A similar procedure was followed for HLE.
(§2) The reaction of an irreversible inhibitor with PPE and HLE may be illustrated by the scheme shown below: [drawing 5] where EI is the noncovalently bound enzyme-inactivator complex and E-I is the final product with the inhibitor covalently bound to the enzyme. The kinetics data were analyzed according to known procedures. The apparent pseudo-first-order inactivation rate constants were determined from the slopes of semilogarithmic plots of enzymatic activity remaining versus time using the following equation: [formula] where Et /EO is the amount of active enzyme remaining after time "t". Inhibition is generally expressed in terms of k3 /Ki, M^-1 s^-1, wherein Ki is the disassociation constant for the enzyme inhibitor complex and k3 is a limiting rate constant for the irreversible loss of enzymatic activity.
Table I below illustrates the inhibition found with assays of nine amino-acid-derived azolides against PPE and HLE.

[2] = target: T1, Human leukocyte elastase (HLE) (Homo sapiens, UniProt P08246); assay: Spectrophotometric assay of HLE inactivation (in vitro); format: biochemical
T1 construct: purchased Elastin Products, St. Louis, Mo
T1 sequence (P08246 30-267): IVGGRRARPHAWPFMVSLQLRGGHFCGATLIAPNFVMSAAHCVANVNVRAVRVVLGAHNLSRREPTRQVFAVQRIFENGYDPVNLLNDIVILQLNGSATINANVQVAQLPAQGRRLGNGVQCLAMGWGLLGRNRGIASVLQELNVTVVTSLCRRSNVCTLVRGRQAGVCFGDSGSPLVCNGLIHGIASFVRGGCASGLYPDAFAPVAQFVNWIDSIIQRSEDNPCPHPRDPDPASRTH
Experimental: as §1, with “The inhibitor-to-enzyme ratios varied between 50 and 200, and the incubation intervals were shortened or lengthened depending upon the potency of the inhibitor.” left out
as §2, with “"t".” for “"t". Inhibition is generally expressed in terms of k3 /Ki, M^-1 s^-1, wherein Ki is the disassociation constant for the enzyme inhibitor complex and k3 is a limiting rate constant for the irreversible loss of enzymatic activity.”
The assay procedure used was the procedure identified relative to the tests above in Table I.
(kobsd) were determined by plotting in [E]t /[E]o vs time.

[3] = Inactivation of S-ethylcysteine sulfonate salt by oxidants / hydrolysis in buffer; format: physicochemical
Description: In addition, compound 3, Table VI, was exposed to oxidants in vitro and the rates of its inactivation with chloramine-T and H2 O2 compared to buffer alone are summarized in Table VII below. […] The observed rates of inhibitor inactivation are 6 to 12 fold smaller than the rate at which the inhibitor inactivates the enzyme.

[4] = Table I azolides, read-out: Human leukocyte elastase k3 /Ki
[5] = Table VI, sulfur-containing amino acid esters, read-out: kobsd /[I], inhibition of HLE
[6] = Table III, inactive: no inhibition at 243fold excess of inhibitor over enzyme, 10min incubation, read-out: kobsd /[I], inhibition of leukocyte elastase
[7] = Table II monopotassium sulfonate salts, read-out: k2 /Ki (HLE)
[8] = Table III, inactive: no inhibition at 243fold excess of inhibitor over enzyme, 10min incubation
[9] = Table VI, sulfur-containing amino acid esters
[10] = Table IV, derivatives of phenylalanine, read-out: kobsd /[I], inhibition of leukocyte elastase
[11] = Table II monopotassium sulfonate salts

SMILES: CCCCNC(=O)n1ccnc1 [n-butyl derivative]
Inhibition of PPE (in words) (PPE; Biochem. Biophys. Res. Commun. report (1980)): particularly capable of binding to the active site of the enzyme

Inhibition of PPE (in words) [1]: marginal inhibitory activity
Inhibition of HLE (in words) [2]: marginal inhibitory activity
SMILES: COC(=O)[C@H](C)NC(=O)n1ccnc1 [Compound 2]

SMILES: CCC[C@H](NC(=O)n1ccnc1)C(=O)OC [Compound 5]
Inhibition of PPE (in words) [1]: little for PPE
kinact/KI [1]: 6.3 M⁻¹ s⁻¹
Inhibition of HLE (in words) [2]: effective inhibitors; also recorded: avidity for HLE
kinact/KI [2, 4]: 500 M⁻¹ s⁻¹

Inhibition of PPE (in words) [1]: no effect
Inhibition of HLE (in words) [2]: no effect
SMILES: COC(=O)[C@H](NC(=O)n1ccnc1)C(C)C [Compound 4]

SMILES: COC(=O)[C@H](NC(=O)n1ccnc1)C(C)C [Compound 4, Table I]
Irreversible inhibition of PPE (in words) (PPE): marginal activity

kinact/KI [1]: 0.5 M⁻¹ s⁻¹
Inhibition of HLE (in words) [2]: highly effective
SMILES: COC(=O)[C@H](CC(C)C)NC(=O)n1ccnc1 [Compound 7, Table I]

kinact/KI [2, 5]: 1800 M⁻¹ s⁻¹
kobsd, inactivation of inhibitor ([3]; Chloramine T (0.06 mM), first line): 6.6 × 10^-4 sec ^-1
kobsd, inactivation of inhibitor ([3]; Chloramine T (0.06 mM), second line): 3.2 × 10^-3 sec ^-1
kobsd, inactivation of inhibitor ([3]; H2O2 (1 mM)): 1.2 × 10^-3 sec ^-1
kobsd, inactivation of inhibitor ([3]; Triss buffer, pH 8.0 (0.2 M)): 5.8 × 10^-4 sec ^-1
half life of hydrolysis in buffer solution ([3]; buffer, pH 8.0): twenty
half life with addition of oxidants (in words) ([3]; chloramine-T, H2O2): shorter half lives
SMILES: CCSC[C@H](NC(=O)S(=O)(=O)O)C(=O)OC [Compound 3, Table VI]
scavenging of oxidants (in words) ([3]; chloramine-T and H2O2): scavenged by the inhibitor in a time dependent and efficient fashion

kinact/KI [2, 6]: 483 M⁻¹ s⁻¹
SMILES: O=C(NCCc1cccc(C(F)(F)F)c1)n1ccnc1 [Compound 20]

kinact/KI [2, 7]: 260 M⁻¹ s⁻¹
SMILES: COC(=O)[C@H](CC(C)C)NC(=O)S(=O)(=O)O [Compound 7, Table II]
Inhibition of HLE (in words) ([2]; listed as L-leucine sulfonate salt): also deactivate HLE but were not as effective; also recorded: also inactivate HLE, but not as efficiently; also recorded: effective inhibitors

kobsd /[I], inhibition of leukocyte elastase [2, 8]: inactive
SMILES: O=C(Nc1cccc(F)c1)S(=O)(=O)O [Compound 4, Table III]

kobsd /[I], inhibition of leukocyte elastase [2, 8]: inactive
SMILES: O=C(Nc1cccc(C(F)(F)F)c1)n1ccnc1 [Compound 10, Table III]

kobsd /[I], inhibition of leukocyte elastase [2, 8]: inactive
SMILES: O=C(Nc1ccc(C(F)(F)F)cc1)S(=O)(=O)O [Compound 7, Table III]

kinact/KI [2, 6]: 500 M⁻¹ s⁻¹
SMILES: O=C(NCCc1ccccc1)n1ccccc1=O [Compound 21]

kinact/KI [2, 7]: 800 M⁻¹ s⁻¹
SMILES: COC(=O)[C@@H](NC(=O)S(=O)(=O)O)C(C)C [Compound 3, Table II]
Inhibition of HLE (in words) ([2]; listed as L-valine sulfonate salt): very potent inhibitors; also recorded: effective inhibitors

Inhibition of HLE (in words) [2]: inactive
kobsd /[I], inhibition of HLE [2, 9]: inactive
SMILES: CC[S+]([O-])C[C@H](NC(=O)S(=O)(=O)O)C(=O)OC (stereo partly drawn) [Compound 4, Table VI]

Inhibition of PPE (in words) [1]: failed to deactivate
Inhibition of HLE (in words) [2]: failed to deactivate
SMILES: COC(=O)CNC(=O)n1ccnc1 [Compound 1]

kinact/KI [2, 6]: 38 M⁻¹ s⁻¹
SMILES: O=C(NCCc1cccc(F)c1)n1ccnc1 [Compound 19]

kinact/KI [2, 6]: 18 M⁻¹ s⁻¹
SMILES: O=C(NCCc1cccc(F)c1)S(=O)(=O)O [Compound 17, Table III]

kinact/KI [2, 6]: 35 M⁻¹ s⁻¹
SMILES: O=C(NCCc1ccccc1)n1ccnc1 [Compound 18]

kinact/KI [2, 5]: 17 M⁻¹ s⁻¹
SMILES: COC(=O)CSC[C@H](NC(=O)S(=O)(=O)O)C(=O)OC [Compound 8, Table VI]

kobsd /[I], inhibition of leukocyte elastase [2, 8]: inactive
SMILES: O=C(Nc1cccc(F)c1)n1ccnc1 [Compound 8, Table III]

kinact/KI [2, 5]: 4050 M⁻¹ s⁻¹
SMILES: COC(=O)[C@H](CSC)NC(=O)n1ccnc1 [Compound 9, Table VI]

kinact/KI [2, 10]: 1100 M⁻¹ s⁻¹
SMILES: COC(=O)C(Cc1cccc(C(F)(F)F)c1)NC(=O)n1ccnc1 (stereo not drawn) [Compound 34]

kobsd /[I], inhibition of leukocyte elastase [2, 8]: inactive
SMILES: O=C(NCc1cccc(F)c1)n1ccnc1 [Compound 14]

Inhibition of PPE (in words) [1]: unaffected
Inhibition of HLE (in words) [2]: remarkable specificity and high potency
Inhibition of HLE (in words) ([2]; listed as methionine azolide): highly effective
SMILES: COC(=O)[C@H](CCSC)NC(=O)n1ccnc1 [N-(1H-imidazol-1-ylcarbonyl)-methionine methyl ester]

SMILES: COC(=O)[C@@H](NC(=O)n1ccnc1)C(C)C [Compound 3]
Inhibition of PPE (in words) [1]: poor inhibitor; also recorded: little for PPE
Inhibition of HLE (in words) [2]: excellent inhibitor; also recorded: avidity for HLE

Inhibition of HLE (in words) [2]: no inhibitory activity
k2 /Ki (HLE) [2, 11]: inactive
SMILES: CCC[C@@H](NC(=O)S(=O)(=O)O)C(=O)OC [Compound 5, Table II]

kinact/KI [2, 6]: 823 M⁻¹ s⁻¹
SMILES: O=C(NCCc1cccc(F)c1)ON1C(=O)CCC1=O [Compound 25]

kinact/KI [1]: 1 M⁻¹ s⁻¹
SMILES: CCC(C)[C@H](NC(=O)n1ccnc1)C(=O)OC (stereo partly drawn) [Compound 8, Table I]

SMILES: CCOC(=O)CNC(=O)n1ccnc1 [glycine ethel ester derivative]
Irreversible inhibition of PPE (in words) (PPE): inactive

kinact/KI [1]: 2.2 M⁻¹ s⁻¹
kinact/KI [2, 4]: 167 M⁻¹ s⁻¹
SMILES: CCCCC(NC(=O)n1ccnc1)C(=O)OC (racemic) [Compound 9, Table I]

SMILES: COC(=O)[C@H](Cc1ccccc1)NC(=O)S(=O)(=O)O [Compound 27]
kinact/KI [2, 10]: 550 M⁻¹ s⁻¹

kobsd /[I], inhibition of HLE [2, 9]: inactive
SMILES: COC(=O)[C@H](CSSC[C@H](NC(=O)S(=O)(=O)O)C(=O)OC)NC(=O)S(=O)(=O)O [Compound 7, Table VI]

kinact/KI [2, 5]: 15 M⁻¹ s⁻¹
SMILES: COC(=O)CSC[C@H](NC(=O)n1ccnc1)C(=O)OC [Compound 11, Table VI]

kobsd /[I], inhibition of leukocyte elastase [2, 8]: inactive
SMILES: O=C(Nc1cccc(Cl)c1)S(=O)(=O)O [Compound 2, Table III]

kinact/KI [2, 10]: 6640 M⁻¹ s⁻¹
SMILES: COC(=O)[C@H](Cc1ccccc1)NC(=O)ON1C(=O)CCC1=O [Compound 30]

kinact/KI [2, 6]: 11700 M⁻¹ s⁻¹
SMILES: O=C(NCCc1cccc(C(F)(F)F)c1)n1ccccc1=O [Compound 23]

Inhibition of HLE (in words) [2]: devoid of any inhibitory activity
k2 /Ki (HLE) [2, 11]: inactive
SMILES: COC(=O)CNC(=O)S(=O)(=O)O [Compound 1, Table II]

kobsd /[I], inhibition of leukocyte elastase [2, 8]: inactive
SMILES: O=C(NCc1cccc(C(F)(F)F)c1)n1ccnc1 [Compound 15]

kobsd /[I], inhibition of HLE [2, 9]: inactive
SMILES: COC(=O)[C@H](CSCc1ccccc1)NC(=O)S(=O)(=O)O [Compound 6, Table VI]

kinact/KI [2, 5]: 1510 M⁻¹ s⁻¹
SMILES: COC(=O)[C@H](CSC)NC(=O)S(=O)(=O)O [Compound 5, Table VI]

Inhibition of PPE (in words) [1]: little for PPE
SMILES: CCCCC(NC(=O)n1ccnc1)C(=O)OC (stereo not drawn) [Compound 9]
Inhibition of HLE (in words) [2]: effective inhibitors; also recorded: avidity for HLE
